In US9221833B2, “Antiviral compounds” (GILEAD PHARMASSET LLC, priority 2011, dated 2015):
Read-outs that look alike come from different tables or passages of the source.

Legend:
Format in all cases: cell-based, HCV
[1] = system: genotype 1b Con1 replicon; assay: microbe, parasite or virus in culture
Experimental: (§1) Evaluation of cell-based anti-HCV activity: Antiviral potency (EC50) was determined using a Renilla luciferase (RLuc)-based HCV replicon reporter assay. […] To perform the assay for genotype 2a (with M31 present in NS5A) or 2b, NS5A chimeric genotype 2a JFH-1 replicons that encodes a RLuc-Neo reporter and either genotype 2a J6 strain NS5A gene or genotype 2b MD2b-1 strain NS5A gene (both with M31 present) respectively, were either transiently transfected (t) into Huh-Lunet cells or were established as stably replicating replicon cells (s) is provided. Either cells were dispensed into 384-well plates for EC50 assays. To perform the assay for genotype 3 and 4, NS5A chimeric genotype 1b Con1 replicons that encodes a Pi-RLuc reporter and either genotype 3a S52 strain NS5A gene or genotype 4a ED43 strain NS5A gene respectively, were transiently transfected (t) into Huh-Lunet cells, which were subsequently dispensed into 384-well plates. Compounds were dissolved in DMSO at a concentration of 10 mM and diluted in DMSO either manually or using an automated pipeting instrument. Serially 3-fold diluted compounds were either manually mixed with cell culture media and added to the seeded cells or directly added to the cells using an automated instrument. […] 72 hours later, cells were lysed and Renilla luciferase activity quantified as recommended by the manufacturer (Promega-Madison, Wis.). Non-linear regression was performed to calculate EC50 values.

[2] = system: genotype 2a JFH-1 replicon (L31 present in NS5A); assay: microbe, parasite or virus in culture; settings: genotype 2a JFH replicon, read-out: 2a JFH
Experimental: as §1

[3] = system: genotype 2b MD2b-1 strain NS5A gene (M31 present); assay: microbe, parasite or virus in culture
Experimental: as §1

[4] = system: genotype 2a J6 strain NS5A gene (M31 present); assay: Replicon assay, NS5A chimeric 2a JFH-1 replicon with 2a J6 NS5A, transient (t) or stable (s), Huh-Lunet cells
Experimental: as §1

[5] = system: genotype 3a S52 strain NS5A gene; assay: Replicon assay, NS5A chimeric 1b Con1 replicon with 3a NS5A, transiently transfected Huh-Lunet cells; settings: genotype 3a, read-out: 3a
Experimental: as §1

[6] = system: genotype 4a ED43 strain NS5A gene; assay: Replicon assay, NS5A chimeric 1b Con1 replicon with 4a NS5A, transiently transfected Huh-Lunet cells
Experimental: as §1, with “[…],” for “were transiently transfected (t) into Huh-Lunet cells,”

[7] = system: Q30R in genotype 1a NS5A; assay: Antiviral potency against resistance mutant, 1a Pi-Rluc replicon in Huh-7-derived cured-51 cells; settings: genotype 1a Q30R resistance mutant, read-out: 1a Q30R
Experimental: as §1
To determine the antiviral potency (EC50) against resistance mutants, resistance mutations, including M28T, Q30R, Q30H, L31M, and Y93C in genotype 1a NS5A and Y93H in genotype 1b NS5A, were introduced individually into either 1a Pi-Rluc or 1b Pi-Rluc replicons by site directed mutagenesis. Replicon RNA of each resistant mutant was transiently transfected into Huh-7-derived cured-51 cells and antiviral potency was determined on these transfected cells as described above.

[8] = genotype 2b, EC50 range class, transiently transfected cells (t), if unavailable stably replicating cells (s), read-out: 2b
[9] = stably replicating cells (s), read-out: 2b (s)
[10] = transiently transfected cells (t), read-out: 2b (t)
[11] = genotype 2a J6, EC50 range class, transiently transfected cells (t), if unavailable stably replicating cells (s), read-out: 2a J6
[12] = stably replicating cells (s), read-out: 2a J6 (s)
[13] = transiently transfected cells (t), read-out: 2a J6 (t)
[14] = genotype 4a, EC50 range class, transiently transfected cells (t), if unavailable stably replicating cells (s), read-out: 4a
[15] = stably replicating cells (s), read-out: 4a (s)
[16] = transiently transfected cells (t), read-out: 4a (t)
[17] = Hepatitis C virus, read-out: 1b (nM)

Compound | EC50 ([1]; read-out: 1b) | EC50 ([2]; EC50 range class) | EC50 [2] | EC50 [3, 8] | EC50 [3, 9] | EC50 [3, 10] | EC50 [4, 11] | EC50 [4, 12] | EC50 [4, 13] | EC50 ([5]; EC50 range class) | EC50 [5] | EC50 [6, 14] | EC50 ([7]; EC50 range class) | EC50 [7] | EC50 [6, 15] | EC50 [6, 16] | EC50 [1, 17]
COC[C@@H]1C[C@@H](c2nc3ccc4cc5c(cc4c3[nH]2)OCc2cc(-c3cnc([C@@H]4CCCN4C(=O)[C@@H](NC(=O)OC)C(C)C)[nH]3)ccc2-5)N(C(=O)[C@H](NC(=O)OC)c2ccccc2)C1 [Example MQ, methyl{(1R)-2-[(2S,4R)-2-(9-{2-[(2S)-1-{(2S)-2-[(methoxycarbonyl)amino]-3-methylbutanoyl}pyrrolidin-2-yl)-1H-imidazol-5-yl]-1,11-dihydroisochromeno[4′,3′:6,7]naphtho[1,2-d]imidazol-2-yl}-4-(methoxymethyl)pyrrolidin-1-yl]-2-oxo-phenylethyl}carbamate] | 0.011 nM | < 1 nM | 0.004 nM | < 1 nM | 0.023 nM | 0.009 nM | < 1 nM | 0.095 nM | 0.017 nM | < 1 nM | 0.016 nM | < 1 nM | < 1 nM | 0.023 nM | – | – | –
Methyl {(2S)-1-[(2S,5S)-2-(5-{2-[(2S,4S)-1-{(2S)-2-[(methoxycarbonyl)amino]-3-methylbutanoyl}-4-methylpyrrolidin-2-yl]-1,11-dihydroisochromeno[4′,3′:6,7]naphtho[1,2-d]imidazol-9-yl}-1H-imidazol-2-yl)-4-methylpyrrolidin-1-yl]-3-methyl-1-oxobutan-2-yl}carbamate [Example ND] | 0.024 nM | < 1 nM | 0.014 nM | < 1 nM | 1.32 nM | 0.27 nM | < 1 nM | 2.34 nM | 0.314 nM | < 1 nM | 0.035 nM | < 1 nM | < 1 nM | 0.057 nM | 0.044 nM | 0.031 nM | –
COC[C@H]1C[C@@H](c2ncc(-c3ccc4c(c3)COc3cc5c(ccc6nc([C@@H]7C[C@H]8C[C@H]8N7C(=O)[C@H](NC(=O)OC)c7ccccc7)[nH]c65)cc3-4)[nH]2)N(C(=O)[C@@H](NC(=O)OC)C(C)C)C1 [Example MV] | 0.014 nM | < 1 nM | 0.004 nM | < 1 nM | 0.041 nM | 0.034 nM | < 1 nM | – | 0.047 nM | < 1 nM | 0.011 nM | < 1 nM | < 1 nM | 0.012 nM | 0.011 nM | – | –
dimethyl (2S,2′S)-1,1′-((2 S,2′S)-2,2′l-pyrrolidin-2-yl)-5H-naphtho[c,g]chromeno[8,9-d]imidazol-9-yl)-1H-imidazol-2-yl)pyrrolidin-1-yl))bis(3-methyl-1-oxobutane-2,1-diyl)dicarbamate [Example MC] | 0.017 nM | < 1 nM | 0.004 nM | < 1 nM | 0.375 nM | 0.162 nM | 1 to 4.99 nM | 3.52 nM | 1.16 nM | < 1 nM | 0.004 nM | < 1 nM | < 1 nM | 0.99 nM | 0.028 nM | 0.008 nM | –
COC[C@H]1C[C@@H](c2nc3ccc4cc5c(cc4c3[nH]2)OCc2cc(-c3ccc4nc([C@@H]6CCCN6C(=O)[C@@H](NC(=O)OC)C(C)C)[nH]c4c3)ccc2-5)N(C(=O)[C@H](NC(=O)OC)c2ccccc2)C1 [Example MS] | 0.008 nM | < 1 nM | 0.005 nM | > 5 nM | 9.56 nM | – | > 5 nM | 15.6 nM | – | – | – | < 1 nM | – | – | 0.02 nM | 0.014 nM | –
COC(=O)N[C@H](C(=O)N1CCC[C@H]1c1ncc(-c2ccc3c(c2)COc2cc4c(ccc5nc([C@@H]6C[C@H](C)CN6C(=O)[C@H](NC(=O)OC)c6ccccc6)[nH]c54)cc2-3)[nH]1)C(C)C [Example MY, Methyl {2-[2-{9-[2-(1-{2-[(methoxycarbonyl)amino]-3-methylbutanoyl}pyrrolidin-2-yl)-1H-imidazol-5-yl]-1,11-dihydroisochromeno[4′,3′:6,7]naphtho[1,2-d]imidazol-2-yl}-4-(methyl)pyrrolidin-1-yl]-2-oxo-1-phenylethyl}carbamate] | – | – | – | – | – | – | – | – | – | – | – | – | – | – | – | – | 0.015 nM
COC[C@H]1C[C@@H](c2nc3c([nH]2)-c2cc4c(cc2CC3)-c2ccc(-c3cnc([C@@H]5CCCN5C(=O)[C@@H](NC(=O)OC)C(C)C)[nH]3)cc2CO4)N(C(=O)[C@H](NC(=O)OC)c2ccccc2)C1 [Example MR, methyl{(1R)-2-[(2S,4S)-2-(9-{2-[(2S)-1-{(2S)-2-[(methoxycarbonyl)amino]-3-methylbutanoyl}pyrrolidin-2-yl)-1H-imidazol-5-yl]-1,11-dihydroisochromeno[4′,3′:6,7]-4,5-dihydro-naphtho[1,2-d]imidazol-2-yl}-(methoxymethyl)pyrrolidin-1-yl]-2-oxo-1-phenylethyl}carbamate] | 0.041 nM | < 1 nM | 0.017 nM | < 1 nM | 0.053 nM | 0.039 nM | < 1 nM | 0.176 nM | 0.079 nM | < 1 nM | 0.078 nM | < 1 nM | < 1 nM | 0.128 nM | – | 0.045 nM | –
COC[C@H]1C[C@@H](c2nc3ccc4cc5c(cc4c3[nH]2)OCc2cc(-c3cnc([C@@H]4C[C@H](C)CN4C(=O)[C@H](NC(=O)OC)c4ccccc4)[nH]3)ccc2-5)N(C(=O)[C@@H](NC(=O)OC)C(C)C)C1 [Example PF, methyl {1-[2-{9-[2-(1-{[(methoxycarbonyl)amino](phenyl)acetyl}-4-methylpyrrolidin-2-yl)-1H-imidazol-5-yl]-1,11-dihydroisochromeno[4′,3′:6,7]naphtho[1,2-d]imidazol-2-yl}-4-(methoxymethyl)pyrrolidin-1-yl]-3-methyl-1-oxobutan-2-yl}carbamate] | – | – | – | – | – | – | – | – | – | – | – | – | – | – | – | – | 0.044 nM
COC(=O)N[C@H](C(=O)N1CCC[C@H]1c1ncc(-c2ccc3c(c2)COc2cc4c(cc2-3)CCc2[nH]c([C@@H]3CCCN3C(=O)[C@@H](NC(=O)OC)C(C)C)nc2-4)[nH]1)C(C)C [Example ME] | 0.049 nM | < 1 nM | 0.012 nM | < 1 nM | 0.701 nM | 0.198 nM | 1 to 4.99 nM | 16.1 nM | 3.43 nM | < 1 nM | 0.015 nM | < 1 nM | 1 to 44 nM | 2.51 nM | 0.029 nM | 0.016 nM | –
